Values quoted from earlier work in patent publication US10300101B2, “Methods and compositions for enhancing or maintaining fertility” (Quality IP Holdings, LLC, priority 2012, dated 2019).

Experiments:
hGH levels [1] = tested on: hGH levels
hGH levels [2] = details: subcutaneous injection of 0.06 IU in hGH deficient subjects

Row | Compound | elevation of serum hGH levels (hGH levels [1]; 30 g intravenous, in males) | increase in hGH levels (hGH levels [1]; intravenous infusion of 183 mg/kg body weight in females) | mean levels of hGH reached (hGH levels [2])
1 | N=C(N)NCCC[C@H](N)C(=O)O [arginine] | 8.6 fold | > 20 fold | 
2 | hGH: human growth hormone given by subcutaneous injection to hGH deficient subjects |  |  | 0.4 ng/mL
